Assay results taken from article PMC5853558, “De novo identification of lipid II binding lipopeptides with antibacterial activity against vancomycin-resistant bacteria” (Chemical Science, 2017).
Where no end group is shown, it is not given here.

How the values were obtained:
E. faecium (VRE155) = experiment: microbe, parasite or virus in culture; assay type: cell-based, Enterococcus faecium
In short: (§1)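 Broth microdilution in TSB; peptides serially diluted, top final concentration 512 µg/ml (lipopeptides 64 µg/ml) with 2% DMSO. Inoculum from cultures grown to OD600 0.5, diluted to 1 x 10^6 CFU/ml before mixing 1:1 with peptide. Incubated at each organism's preferred growth temperature, 250 rpm.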

E. faecium (VRE2297) = experiment: microbe, parasite or virus in culture; assay type: cell-based, Enterococcus faecium
In short: as §1

E. faecium (VRE0321) = experiment: microbe, parasite or virus in culture; assay type: cell-based, Enterococcus faecium
In short: as §1

E. faecium (E980) = experiment: microbe, parasite or virus in culture; assay type: cell-based, Enterococcus faecium
In short: as §1

E. faecium (VRE7391) = experiment: microbe, parasite or virus in culture; assay type: cell-based, Enterococcus faecium
In short: as §1

lipid II = experiment: Lipid II antagonization assay; assay type: cell-based, M. luteus; design: key to Result with antagonist Lipid II: +: antagonization of antibiotic activity; -: no antagonization of antibiotic activity
Protocol: (§2) To assess the role of lipid II in the mode of action of the lipopeptides a lipid II antagonization assay was employed.[18],[33] This assay was performed by premixing P8-D-C10 or the optimized P8-D-(S6R, R15A)-C10 with an excess of lipid II prior to addition of a live culture of M. luteus. […] To probe the stereochemical aspects of lipid II recognition by the optimized P8-D-(S6R, R15A)-C10 lipopeptide we also prepared and tested the corresponding enantiomeric L-peptide species P8-L-(S6R, R15A)-C10. […] Given that lipid II is a chiral biomolecule we had expected the enantiomeric lipopeptides to have different activities based on the assumption that they would interact differently with lipid II. To further investigate this phenomenon we employed the same lipid II antagonization assay described above. […] To explain this observation we hypothesize that the two enantiomeric peptides interact primarily with the pyrophosphate moiety of lipid II and are therefore less influenced by the chiral elements present elsewhere in the lipid II molecule. The pyrophosphate group is known to be a binding site for many natural occurring lipid II binding peptides.[15],[16] […] To test the hypothesis that both the P8-D-(S6R, R15A)-C10 and P8-L-(S6R, R15A)-C10 lipopeptides interact with the pyrophosphate moiety we performed an additional antagonizaiton experiment using C55-PP.
(§3) Section 4 Biological and biochemical experiments
(§4) 4.1 Minimum inhibitory concentration assay
(§5) MIC values were determined by using the broth microdilution method. Peptides were dissolved first in DMSO and diluted with broth so that the final peptide concentration was 1024 µg/ml and the DMSO concentration was 4%. Peptide serial dilutions were made in TSB in a polypropylene 96-wells plate using 50 µl volumes. An overnight culture of the organism of interest was diluted to and OD600 of 0.01 and grown until they reach 0.5. The culture was then diluted to 1 x 10^6 CFU/ml and 50 µl of this suspension was added to each well. The highest concentrations were then 512 µg/ml peptide and 2% DMSO. The plates were incubated at the preferred growth temperature of the organism that was used and 250 rpm. […] When […]
(§6) determining the MICs of the lipidated peptides, the lipopeptides were first dissolved in DMSO and diluted with TSB so that the peptide concentration was 128 µg/ml and the DMSO concentration was 4%. After inoculation the highest peptide concentration evaluated was 64 µg/ml and the DMSO concentration was 2%. A DMSO control was tested for each strain to ensure the DMSO did not affect the growth of the particular strain. […]
(§7) 4.4 Antagonization assays
(§8) Stock solutions of each peptide antibiotic were prepared so that their final concentration in the assay would be 4x MIC. Peptides were transferred to a 96 wells plate and lipid II or C15-P (farnesyl-phosphate) was added at 4 molar equivalents in a final volume of 50 µl. Each well received 50 µl of bacterial suspension (M. luteus) at 1 x 10^6 CFU/ml and the plates were incubated for 16 h at 250 rpm and 30°C. Growth was observed visually (see supplemental table S10 for results).

[1] = test system: C15-P (farnesyl-phosphate); experiment: Antagonization assay with C15-P (negative control); assay type: cell-based; design: key: +: antagonization of antibiotic activity; -: no antagonization of antibiotic activity; conditions: Supplemental table S10, peptide at 4x MIC, 4 molar equivalents, M. luteus, 16 h at 30°C, growth observed visually
Protocol: as §3, §4, §5, §6, §7, §8
Supplemental table S10. Lipid II antagonization assay results
Result with indicated antagonista
Antibiotic compound Lipid II C55-PP C15-Pb […]
a + = antagonization of antibiotic activity; - = no antagonization of antibiotic activity; b C -P was used as a negative […]
control (C15-P is a watersoluble analogue of the lipid II precursor undecaprenol phosphate).
4.6 Scanning Electron Microscopy
E. faecium E155 was inoculated at an OD600nm of 0.05 into 300 µL of cation adjusted TSB containing P8-D-(S6R, R15A)-C10 or nisin at (both a 2x MIC) along with 1% glucose and 1%
DMSO. An untreated culture was used as control. Following overnight incubation (ca. 16 hr) bacterial cells were fixed for 15 minutes with 1% (v/v) glutaraldehyde in phosphate buffered saline (PBS) at room temperature on poly-L-lysine covered glass slides (12 mm diameter). […]

S. pyogenes (5448) = experiment: microbe, parasite or virus in culture; assay type: cell-based
In short: as §1

B. subtilis (168) = experiment: microbe, parasite or virus in culture; assay type: cell-based
In short: as §1

S. epidermidis (1587) = experiment: microbe, parasite or virus in culture; assay type: cell-based
In short: as §1

[2] = read-out: Kd for undecaprenyl pyrophosphate (C55-PP); cited from earlier work
C55-PP = experiment: Antagonization assay with C55-PP; assay type: cell-based, M. luteus; design: key to Result with antagonist C55-PP: +: antagonization of antibiotic activity; -: no antagonization of antibiotic activity; conditions: Supplemental table S10; peptide at 4x MIC, M. luteus, 16 h at 30°C, growth observed visually
Protocol: as §2, §3, §4, §5, §6, §7, §8

M. luteus (NCTC2665) = experiment: microbe, parasite or virus in culture; assay type: cell-based, Micrococcus luteus
In short: as §1

[3] = Supplemental table S9, vancomycin-resistant isolate, MIC values of Table 2 expressed in µM
[4] = Table 2, vancomycin-resistant isolate from hospitalized patients, broth microdilution in TSB, 16 h, highest tested 64 µg/ml
[5] = Supplemental table S9, MIC values of Table 2 expressed in µM
[6] = Table 2, broth microdilution in TSB, 16 h, read visually, highest tested 64 µg/ml

Substance: Nisin (ITSISLCTPGCKTGALMGCNMKTATCHCSIHVSK; not fully specified (some residues, bridges); also: lantibiotic nisin-A: lanthionine rings and dehydro residues not placed; UniProt P13068 24-57, looked up) [reference compound]
- MIC E. faecium (VRE155) (E. faecium (VRE155); Supplemental table S6, lipidated phage display hits, n.a. = not active, highest tested conc 64 µg/ml): < 1 µg/mL
- MIC E. faecium (VRE155) (E. faecium (VRE155); [3]): < 0.3 µM
- MIC E. faecium (VRE155) (E. faecium (VRE155); [4]): <1 μg mL^–1
- MIC E. faecium (VRE2297) (E. faecium (VRE2297); [3]): 2.4 µM
- MIC E. faecium (VRE2297) (E. faecium (VRE2297); [4]): 8 μg mL^–1
- MIC E. faecium (VRE0321) (E. faecium (VRE0321); [3]): 0.3 µM
- MIC E. faecium (VRE0321) (E. faecium (VRE0321); [4]): 1 μg mL^–1
- MIC E. faecium (E980) (E. faecium (E980); [5]): 9.5 µM
- MIC E. faecium (E980) (E. faecium (E980); [6]): 32 μg mL^–1
- MIC E. faecium (VRE7391) (E. faecium (VRE7391); [3]): 0.6 µM
- MIC E. faecium (VRE7391) (E. faecium (VRE7391); [4]): 2 μg mL^–1
- Result with antagonist Lipid II (lipid II; Supplemental table S10, peptide at 4x MIC, antagonist at 4 molar equivalents, M. luteus 1 x 10^6 CFU/ml, 16 h at 30°C, growth observed visually): +
- Effect of pre-incubation with lipid II on antibacterial activity (lipid II; premixed with an excess of lipid II before addition of a live culture of M. luteus): antagonization of antibacterial activity
- Result with antagonist C15-P [1]: -
- MIC S. pyogenes (5448) (S. pyogenes (5448); [5]): < 0.3 µM
- MIC S. pyogenes (5448) (S. pyogenes (5448); [6]): <1 μg mL^–1
- MIC B. subtilis (168) (B. subtilis (168); [5]): 1.2 µM
- MIC B. subtilis (168) (B. subtilis (168); [6]): 4 μg mL^–1
- MIC S. epidermidis (1587) (S. epidermidis (1587); [5]): 1.2 µM
- MIC S. epidermidis (1587) (S. epidermidis (1587); [6]): 4 μg mL^–1
- Kd [2]: 133 nM
- Result with antagonist C55-PP (C55-PP): +
- MIC M. luteus (NCTC2665) (M. luteus (NCTC2665); [5]): < 0.3 µM
- MIC M. luteus (NCTC2665) (M. luteus (NCTC2665); Table 2, broth microdilution in TSB, 16 h, read visually, highest tested 64 µg/ml, 2% DMSO): <1 μg mL^–1
